Source: patent US20100016335A1, “NOVEL AMINOPYRIDINE DERIVATIVES HAVING AURORA A SELECTIVE INHIBITORY ACTION” (priority 2006, published 2010)
Structures can show the parent of a compound that is named as a salt. Where two headings read alike, the source gives them in different places.

Key:
[1] = target: T1, human Aurora A (Homo sapiens, UniProt O14965); assay: Aurora A inhibitory activity (IMAP fluorescence polarization phosphorylation assay); assay type: biochemical; settings: 20 μM ATP, 30° C., 120 minutes
T1 construct: His (N); made in house; host or cells: Escherichia coli BL21-CodonPlus(DE3)-RIL
T1 sequence (O14965 1-403): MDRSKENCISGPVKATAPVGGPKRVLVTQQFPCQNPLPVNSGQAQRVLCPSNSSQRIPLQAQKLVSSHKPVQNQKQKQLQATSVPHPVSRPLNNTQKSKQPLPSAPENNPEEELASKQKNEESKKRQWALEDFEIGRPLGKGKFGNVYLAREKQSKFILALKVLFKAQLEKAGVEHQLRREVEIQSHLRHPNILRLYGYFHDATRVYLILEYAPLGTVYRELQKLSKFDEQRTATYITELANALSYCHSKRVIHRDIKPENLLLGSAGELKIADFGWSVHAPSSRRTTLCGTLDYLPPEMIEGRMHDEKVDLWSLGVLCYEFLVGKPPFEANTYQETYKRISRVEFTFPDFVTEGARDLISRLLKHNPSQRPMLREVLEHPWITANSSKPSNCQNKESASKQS
Text: cDNA of N-terminal His-tagged human Aurora A was integrated into an expression vector, which was then highly expressed in Escherichia coli BL21-CodonPlus(DE3)-RIL cells. The Escherichia coli was harvested and lysed, and then the His-tagged human Aurora A protein was applied onto a nickel chelate column and eluted from the column with imidazole. The active fractions were desalted with a desalting column to give a purified enzyme.
For the phosphorylation reaction, the method by Upstate, Inc. [Kinase Profiler™ Assay Protocols] was referred to, and phosphorylation of the substrate was detected using IMAP® technology (Molecular Devices, Co. Ltd.) (Gaudet E W. et. al, J. Biomol. Screen, 8, 164-175 (2003)). Concretely, the phosphorylation reaction and the detection were carried out as follows:
The phosphorylation reaction was conducted using 384 well plate, and the reaction volume was 10 μl/well. The reaction buffer is comprised of 50 mM Tris-chloride buffer (pH 7.4), 15 mM magnesium acetate, and 0.2 mM ethylenediamine-N,N,N′,N′-tetraacetic acid (EDTA). Thereto, the purified Aurora A protein, 100 nM of the peptide substrate, and 20 μM of adenosine 5′-triphosphate (ATP) were added, and then the reaction was carried out at 30° C. for 120 minutes.
Thereafter, in order to terminate and detect the reaction, 30 μl of the IMAP (registered trademark) binding reagent (IMAP Progressive Binding Reagent, R7284) that had been diluted (1:400) in the 1×IMAP binding buffer A (IMAP Progressive Binding Buffer A, 5× stock, R7282) was added to each well. The solution stood still for 60 minutes in the dark, and then fluorescence polarization was measured using a high-end microplate reader (excitation wavelength: 485 nm; emission wavelength: 520 nm).
(§1) The compound to be tested was added to the reaction system such that a dilution series of the compound in dimethylsulfoxide (DMSO) was prepared, and then 0.5 μL of this solution was added for the testing to each well. Each control well was provided by adding 0.5 μL of DMSO to the well in place of the DMSO solution containing the compound to be tested.

[2] = target: T2, GST-tagged human Aurora B(AurB)/His-tagged human INCENP complex proteins (Homo sapiens, UniProt Q96GD4); assay: Aurora B inhibitory activity (Method A, IMAP assay kit); assay type: biochemical; settings: 40 μM ATP, 25° C., 45 minutes
T2 construct: GST; purchased Carna Biosciences, Inc
T2 sequence (Q96GD4 whole entry): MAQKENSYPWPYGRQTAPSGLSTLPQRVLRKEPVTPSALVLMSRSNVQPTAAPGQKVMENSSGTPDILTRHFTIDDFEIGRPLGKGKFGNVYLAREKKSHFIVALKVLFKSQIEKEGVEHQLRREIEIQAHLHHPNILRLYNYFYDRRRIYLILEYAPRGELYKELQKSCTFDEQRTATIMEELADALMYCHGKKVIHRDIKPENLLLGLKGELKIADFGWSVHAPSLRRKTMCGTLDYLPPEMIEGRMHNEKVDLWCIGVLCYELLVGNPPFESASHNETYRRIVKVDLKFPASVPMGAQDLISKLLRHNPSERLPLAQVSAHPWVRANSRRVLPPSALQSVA
T2 sequence (Q9NQS7 803-916 partner limits assumed): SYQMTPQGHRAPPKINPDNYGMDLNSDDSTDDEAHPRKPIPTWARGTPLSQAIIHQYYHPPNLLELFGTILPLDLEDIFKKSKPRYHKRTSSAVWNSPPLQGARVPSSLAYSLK
Method: An assay development kit for IMAP (registered trademark) (Aurora B), purchased from Carna Biosciences, Inc., was used for phosphorylation reaction, and the phosphorylation of a substrate was detected using the IMAP technology. […] Using the same, the phosphorylation reaction was conducted in accordance with a partially revised protocol attached to the kit, and then the phosphorylation of the substrate was detected using the IMAP technology.
For the phosphorylation reaction, 384 well plate was used, and the reaction volume was 10 μl/well. The composition of the reaction buffer (assay buffer) is comprised of 20 mM of HEPES buffer (pH 7.4), 0.01% Tween-20, and 2 mM of dithiothreitol (DTT). Thereto, AurB/INCENP complex protein, 100 nM of the substrate, and 40 μM of ATP, and 1 mM of magnesium salt were added, and then the reaction was conducted at 25° C. for 45 minutes. Thereafter, in order to terminate and detect the reaction, 30 μl of the IMAP (registered trademark) binding reagent (IMAP Progressive Binding Reagent, R7284) that had been diluted (1:400) in the 1× IMAP binding buffer A (IMAP Progressive Binding Buffer A, 5× stock, R7282) was added to each well.
as §1, with “DMSO” for “dimethylsulfoxide (DMSO)”

[3] = test system: Human cervical cancer cells (HeLa S3); assay: Cell growth inhibitory effect, WST-8 method; assay type: cell-based; settings: HeLa S3, three days incubation, read-out: Cell growth inhibitory effect (HeLaS3) (IC50)
Method: Fetal calf serum (FCS) was purchased from Moregate Biotech, and DMEM medium was purchased from Invitrogen Corp. WST-8 was purchased from Kishida Chemical Co., Ltd.
(§2) Human cervical cancer cells (HeLa S3) were obtained from the American Type Culture Collection (ATCC).
Cells were suspended in a DMEM medium containing 10% FCS, and the cell suspension was dispensed to a 96-well plastic plate at a rate of 750 cells/100 microliters per well. The plate was incubated overnight in 5% CO2-95% air at 37° C. A drug was subjected to graded dilution in dimethylsulfoxide and further diluted with a DMEM medium containing 10% FCS. Then, the dilution was dispensed to the plate on which cells had been disseminated in advance, at a rate of 100 microliters per well. The plate was incubated for further three days in 5% CO2-95% air at 37° C. Cell growth after incubation was measured by the WST-8 method (H. Tominaga, et al., Anal. Commun., 36, 47-50 (1999)). Here, the WST-8 method refers to a method in which 20 microliters of a WST-8 reagent solution is added to each well, incubation is conducted at 37° C. for 60 minutes, the plate is stirred, and the amount of formazan produced is measured by a […] method to determine the inhibitory rate of the drug.

[4] = test system: Human cervical cancer cells (HeLa S3); assay: Effect by combined use of drugs in cells (docetaxel), WST-8 method; assay type: cell-based; settings: HeLa S3, three days; for inhibition at 0.3 µM / inhibition at 1 µM: Homo sapiens, read-out: Cell growth inhibitory effect by sole administration of the compound of Example (%); for inhibition at 1 µM: compound 1.0 μM alone
Method: Fetal calf serum (FCS) was purchased from Moregate Biotech, DMEM medium from Invitrogen Corp., docetaxel (tradename: Taxere) from Sigma-Aldrich, Inc., and WST-8 from Kishida Chemical Co., Ltd.
as §2
Cells were suspended in a DMEM medium containing 10% FCS, and the cell suspension was dispensed to two 96-well plastic plates at a rate of 750 cells/100 microliters per well. The plates were incubated overnight in 5% CO2-95% air at 37° C. A drug was subjected to graded dilution in dimethylsulfoxide and further diluted with DMSO or with a DMEM medium containing 10% FCS and also containing 0.6 nM docetaxel. Then, the dilutions were each dispensed to one of the plates on which cells had been disseminated in advance, at a rate of 100 microliters per well. The final concentration of docetaxel at this stage was 0.3 nM. Also, the concentrations in the case of sole administration of the compound according to the invention were 0.003, 0.01, 0.03, 0.1, 0.3, 1, 3 and 10 μM. The plates were incubated for further three days in 5% CO2-95% air at 37° C. Cell growth after incubation was measured by the WST-8 method (H. Tominaga, et al., Anal. Commun., 36, 47-50 (1999)). Here, the WST-8 method refers to a method in which 20 microliters of a WST-8 reagent solution is added to each well, incubation is conducted at 37° C. for 60 minutes, the plate is stirred, and the amount of formazan produced is measured by a colorimetric method to determine the inhibitory rate of the drug. The growth inhibitory effects of docetaxel and of the compound according to the invention were determined, with the value obtained in sole treatment of DMSO being defined as 0%.

[5] = HeLa S3, 72 h, compound 0.3 μM alone
[6] = compound 0.3 μM + docetaxel 0.3 nM
[7] = compound 1.0 μM + docetaxel 0.3 nM

| Compound | IC50 [1] [nM] | IC50 [2] [nM] | IC50 ([3]; Homo sapiens, 72 h) [nM] | IC50 [3] [nM] | inhibition at 0.3 µM [4, 5] [%] | inhibition at 1 µM ([4]; HeLa S3, 72 h) [%] | Cell growth inhibitory effect by combined administration of docetaxel and the compound of Example (%) [4, 6] [%] | Cell growth inhibitory effect by combined administration of docetaxel and the compound of Example (%) [4, 7] [%] | Cell growth inhibitory effect by combined administration of docetaxel and the compound of Example (%) ([4]; compound 0.1 μM + docetaxel 0.3 nM) | Cell growth inhibitory effect by sole administration of the compound of Example (%) ([4]; compound 0.1 μM alone) | Cell growth inhibitory effect by sole administration of the compound of Example (%) ([4]; compound 0.3 μM alone) | inhibition at 0.3 µM ([4]; 72 h, compound 0.3 μM alone) [%] |
| --- | --- | --- | --- | --- | --- | --- | --- | --- | --- | --- | --- | --- |
| NC(=O)[C@]1(Cc2cncc(Nc3cc[nH]n3)n2)CC[C@@H](Oc2cccc(Cl)c2F)CC1 [Example 15, trans-4-(3-chloro-2-fluorophenoxy)-1-((6-(1H-pyrazol-3-ylamino)pyrazin-2-yl)methyl)cyclohexanecarboxamide] | 2 | 870 | 1760 |  | 17 | 42.4 | 76.4 | 90.8 |  |  |  |  |
| 5-(trans-4-(3-chloro-2-fluorophenoxy)-1-((6-(1H-pyrazol-3-ylamino)pyrazin-2-yl)methyl)cyclohexyl)-1,3,4-oxadiazol-2(3H)-one [Example 29] | 0.19 | 670 |  | 670 |  |  | 92.9 |  | 79.0 | 11.3 | 39.9 |  |
| N#C[C@]1(Cc2cccc(Nc3cc[nH]n3)n2)CC[C@@H](Oc2cccc(Cl)c2F)CC1 [Example 16, trans-4-(3-chloro-2-fluorophenoxy)-1-((6-(1H-pyrazol-3-ylamino)pyridin-2-yl)methyl)cyclohexanecarbonitrile] | 1.6 | > 1000 |  |  |  |  |  |  |  |  |  |  |
| Cl.O=C(O)[C@]1(Cc2cccc(Nc3nccs3)n2)CC[C@@H](Oc2cccc(Cl)c2F)CC1 [Example 1, trans-4-(3-chloro-2-fluorophenoxy)-1-((6-(1,3-thiazol-2-ylamino)pyridin-2-yl)methyl)cyclohexanecarboxylic acid hydrochloride] |  |  | 1970 |  |  |  | 84.7 |  |  |  |  | 4.4 |
| CNC(=O)[C@]1(Cc2cccc(Nc3cc[nH]n3)n2)CC[C@@H](Oc2cccc(Cl)c2F)CC1 [Example 12, trans-4-(3-chloro-2-fluorophenoxy)-N-methyl-1-((6-(1H-pyrazol-3-ylamino)pyridin-2-yl)methyl)cyclohexanecarboxamide] | 2.5 | > 1000 |  |  |  |  |  |  |  |  |  |  |

Further compounds by falling IC50 [1], results first:

| IC50 [1] [nM] | IC50 [2] [nM] | IC50 ([3]; Homo sapiens, 72 h) [nM] | IC50 [3] [nM] | Compound | inhibition at 0.3 µM [4, 5] [%] | inhibition at 1 µM ([4]; HeLa S3, 72 h) [%] | Cell growth inhibitory effect by combined administration of docetaxel and the compound of Example (%) [4, 6] [%] | Cell growth inhibitory effect by combined administration of docetaxel and the compound of Example (%) [4, 7] [%] | Cell growth inhibitory effect by combined administration of docetaxel and the compound of Example (%) ([4]; compound 0.1 μM + docetaxel 0.3 nM) | Cell growth inhibitory effect by sole administration of the compound of Example (%) ([4]; compound 0.1 μM alone) | Cell growth inhibitory effect by sole administration of the compound of Example (%) ([4]; compound 0.3 μM alone) | inhibition at 0.3 µM ([4]; 72 h, compound 0.3 μM alone) [%] |
| --- | --- | --- | --- | --- | --- | --- | --- | --- | --- | --- | --- | --- |
| 0.18 | 110 |  |  | Cc1cc(Nc2cc[nH]n2)nc(C[C@]2(c3n[nH]c(=O)o3)CC[C@H](Oc3cccc(Cl)c3F)CC2)n1 [Example 41, 5-(trans-4-(3-chloro-2-fluorophenoxy)-1-((4-methyl-6-(1H-pyrazol-3-ylamino)pyrimidin-2-yl)methyl)cyclohexyl)-1,3,4-oxadiazol-2(3H)-one trifluoroacetate] |  |  |  |  |  |  |  |  |
| 0.13 | 210 | 2220 |  | O=C(O)[C@]1(Cc2cccc(Nc3cc[nH]n3)n2)CC[C@@H](Sc2cccc(Cl)c2Cl)CC1 [Example 33, trans-4-((2,3-dichlorophenyl)thio)-1-((6-(1H-pyrazol-3-ylamino)pyridin-2-yl)methyl)cyclohexanecarboxylic acid trifluoroacetate] | 0.3 | 23.4 | 75.5 | 91.3 |  |  |  |  |
| 0.12 | 130 |  |  | O=C(O)[C@]1(Cc2cccc(Nc3nccs3)n2)CC[C@@H](Oc2cccc(Cl)c2)CC1 [Example 5, trans-4-(3-chlorophenoxy)-1-((6-(1,3-thiazol-2-ylamino)pyridin-2-yl)methyl)cyclohexanecarboxylic acid hydrochloride] |  |  |  |  |  |  |  |  |
| 0.11 | 32 | 830 |  | Cl.O=C(O)[C@]1(Cc2cccc(Nc3nccs3)n2)CC[C@@H](Oc2cccc(C(F)(F)F)c2F)CC1 [Example 4, trans-4-(2-fluoro-3-(trifluoromethyl)phenoxy)-1-((6-(1,3-thiazol-2-ylamino)pyridin-2-yl)methyl)cyclohexanecarboxylic acid hydrochloride] | 22.9 | 52.9 | 88.6 | 93.8 |  |  |  |  |
